This passage reports aqueous solubility results from patent publication US20110312973A1, “SOLID COMPOSITIONS” (priority 2010, published 2011).

A short description of this data set: Aqueous solubility. The class given is physicochemical.

On to `Cc1cnc(C(=O)N[C@H]2CCCCC/C=C\[C@@H]3C[C@@]3(C(=O)NS(=O)(=O)C3CC3)NC(=O)[C@@H]3C[C@@H](Oc4nc5ccccc5c5ccccc45)CN3C2=O)cn1` [Compound I, (2R,6S,13aS,14aR,16aS,Z)-N-(cyclopropylsulfonyl)-6-(5-methylpyrazine-2-carboxamido)-5,16-dioxo-2-(phenanthridin-6-yloxy)-1,2,3,5,6,7,8,9,10,11,13a,14,14a,15,16,16a-hexadecahydrocyclopropa[e]pyrrolo[1,2-a][1,4]diazacyclopentadecine-14a-carboxamide], for which the aqueous solubility result was “low aqueous solubility”.
